Laboratory results as given in patent US20240101971A1 (Biogen MA Inc., priority 2021, published 2024).
Structures can show the parent of a compound that is named as a salt.

Experiments:
suspension HEK293 cells [1] = test: rAAV production at manufacturing scale, batch and fed batch bioreactors, suspension HEK293 cells, Payload A; format: cell-based; conditions: added 0.5 hours post-transfection
Protocol: Scalability of microtubule destabilizing agents (colcemid and colchicine) for production of rAAV was also assessed in batch bioreactors and larger volume fed batch bioreactors for manufacturing scale. Suspension HEK293 cells were transiently transfected with plasmids encoding Payload A flanked by an ITR on either side, at least one Rep polypeptide, at least one Cap polypeptide, and at least one helper polypeptide, colcemid was added at 0.5 hours post-transfection, and cells were cultured in 3-liter batch bioreactors or 250-liter fed bioreactors for a period of time e.g., several days prior to sampling.

suspension HEK293 cells [2] = test: FACS analysis (propidium iodide) of cell cycle phase of non-transfected suspension HEK293 cultures; format: cell-based; conditions: for cell synchronization, cell cycle phase by FACS: 24 hours with agent, non-transfected suspension HEK293 cultures, FIG. 2A
Protocol: Cell cycle phase of non-transfected, suspension HEK293 cultures was evaluated using fluorescence activated cell sorting (FACS). Suspension HEK293 cultures were grown in shake flasks for 24 hours with cycle arresting agents (aphidicolin, caffeine, colcemid, colchicine, flavopiridol, hydroxyurea, thymidine, trichostatin A, and vinblastine sulfate) prior to sampling for FACS analysis using propidium iodide (PI), which binds to DNA. Light intensity is indicative of the relative quantity of DNA present in a cell, which is a measure of cell phase. Forward scatter indicates the a size of a cell, while side scatter indicates the a size of intracellular components. Fluorescence of PI was measured using an excitation of 493 nm and emission of 646 nm.

Structure (SMILES) | rAAV particle titer relative to controls (suspension HEK293 cells [1]; 3-liter batch bioreactors, FIG. 8A) | rAAV particle titer relative to controls (suspension HEK293 cells [1]; 250-liter fed bioreactors, FIG. 8B-8C) | cell synchronization, cell cycle phase by FACS (suspension HEK293 cells [2]) | cell cycle arrest, phase (suspension HEK293 cells [2]; suspension HEK293 cell cultures, FIG. 2B)
CN[C@H]1CCc2cc(OC)c(OC)c(OC)c2-c2ccc(OC)c(=O)cc21 [colcemid, N-deacetyl-N-methylcolchicine] | increase | increase | G2 phase | G2/M phase
COc1cc2c(c(OC)c1OC)-c1ccc(OC)c(=O)cc1[C@@H](NC(C)=O)CC2 [colchicine, (S)—N-(5,6,7,9-tetrahydro-1,2,3,10-tetramethoxy-9-oxobenzo[a]heptalen-7-yl)acetamide] |  |  | G2 phase | 
CC[C@]1(O)C[C@H]2C[N@](CCc3c([nH]c4ccccc34)[C@@](C(=O)OC)(c3cc4c(cc3OC)N(C)[C@H]3[C@@](O)(C(=O)OC)[C@H](OC(C)=O)[C@]5(CC)C=CCN6CC[C@]43[C@@H]65)C2)C1 [vinblastine sulfate, vincaleukoblastine] |  |  | G2 phase | 
